Measured values taken from article PMC6030209, “Structure-Activity Investigations and Optimisations of Non-metabolite Agonists for the Succinate Receptor 1” (Scientific Reports, 2018).
Read-outs that look alike come from different tables or passages of the source.

What was measured:
Assay type in all cases: cell-based
hSUCNR1 = target: T1, hSUCNR1 (Homo sapiens, UniProt Q9BXA5); experiment: IP3 turnover assay in hSUCNR1 transfected HEK-293 cells; conditions: for hSUCNR1 efficacy, %: efficacy relative to succinate (100%), HEK cells (N = 3); for hSUCNR1 efficacy, % / hSUCNR1 % @10^−4M: IP3 turnover; for hSUCNR1 % @10^−4M: relative to succinate (100%)
T1 construct: FLAG (own knowledge: pCMV-Tag 2B is an N-terminal FLAG vector); host or cells: HEK-293, transient transfection with Lipofectamine-2000
T1 sequence (Q9BXA5 1-334): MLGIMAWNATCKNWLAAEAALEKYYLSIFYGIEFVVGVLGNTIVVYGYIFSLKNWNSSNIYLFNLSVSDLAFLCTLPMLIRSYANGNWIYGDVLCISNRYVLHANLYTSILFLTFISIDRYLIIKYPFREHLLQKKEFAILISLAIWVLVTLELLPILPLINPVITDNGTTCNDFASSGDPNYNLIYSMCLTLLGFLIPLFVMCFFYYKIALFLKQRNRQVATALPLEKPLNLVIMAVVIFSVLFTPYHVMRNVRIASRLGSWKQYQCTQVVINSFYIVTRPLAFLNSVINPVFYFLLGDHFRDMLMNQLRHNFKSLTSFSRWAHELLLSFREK
Method: (§1) Receptor constructs for mSUCNR1 and hSUCNR1 were bought from Origene and cloned into the eukaryotic expression vector pCMV-Tag(2B) (Stratagene).
(§2) Transient transfection of the HEK-293 cells was done with Lipofectamine-2000 according to manufacturer’s protocol. Cells were supplemented with fresh medium after 5 h.
(§3) 96-well plates were coated with poly-D-lysine and HEK-293 cells were plated (35.000 cells/well). Cells were transfected for 5 h the following day and subsequently incubated O/N with 0.5 μCi/mL myo[3H]inositol (Perkin Elmer) in 100 μL growth medium. On day 3 cells were washed with 200 µL HBSS/well (Gibco, Life Technologies) followed by a pre-incubation (30 min, 37 °C) with 100 µL HBSS supplemented with 10 mM LiCl. Cells were stimulated with ligand (120 min, 37 °C) and lysed with 50 µL 10 mM formic acid (30 min on ice). In a white 96 well plate 20 µL cell extracts and 80 µL 1:8 diluted YSi scintillation beads (Perkin Elmer) were mixed. The plate was spun down, and a Packard Top Count NXT counter recorded light emission (scintillation) after an 8 h delay.

mSUCNR1 = target: T2, mSUCNR1 (Mus musculus, UniProt Q99MT6); experiment: IP3 turnover assay in mSUCNR1 transfected HEK-293 cells; conditions: for mSUCNR1 efficacy, %: efficacy relative to succinate (100%), HEK cells (N = 3); for mSUCNR1 efficacy, % / mSUCNR1 % @10^−4M: IP3 turnover; for mSUCNR1 % @10^−4M: relative to succinate (100%)
T2 construct: FLAG (own knowledge: pCMV-Tag 2B is an N-terminal FLAG vector); host or cells: HEK-293, transient transfection with Lipofectamine-2000
T2 sequence (Q99MT6 1-317): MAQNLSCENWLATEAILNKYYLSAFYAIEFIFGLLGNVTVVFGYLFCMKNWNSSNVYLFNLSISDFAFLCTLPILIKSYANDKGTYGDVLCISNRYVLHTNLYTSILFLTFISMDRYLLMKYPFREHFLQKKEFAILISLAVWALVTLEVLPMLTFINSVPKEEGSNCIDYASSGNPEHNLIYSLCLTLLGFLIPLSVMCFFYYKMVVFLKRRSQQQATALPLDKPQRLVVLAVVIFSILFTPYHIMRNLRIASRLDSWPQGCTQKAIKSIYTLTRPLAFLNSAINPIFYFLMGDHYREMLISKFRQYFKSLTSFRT
Method: as §1, §2, §3

SUCNR1 = experiment: Active/inactive grouping by EC50 threshold (ALiBERO training set, Table S1); conditions: active (1) / inactive (0), EC50 threshold of 10 µM
From the text: In brief, starting from the homology model supported by mutagenesis data[4], ALiBERO introduced receptor flexibility via Normal Mode Analysis and Monte Carlo sampling, to generate a small subset of receptor models (pockets). […] For a list of all compounds used in the optimisation protocol, see Table S1. Receptor structures were then chosen based on their ability to discriminate actives from inactives in a retrospective virtual screening using the docking protocol and scoring function in ICM (Molsoft L.L.C., San Diego, CA, USA)[20], as measured by the normalised square root area under the curve (NSQ_AUC). […] The ALiBERO-optimised receptor ensemble was subsequently validated in a virtual ligand screening using an external test set with a higher active:decoy ratio (~1:50).
ALiBERO is an iterative sampling-selection protocol for receptor optimisation that relies on the use of ligand information for selecting the best-performing receptor conformations. Homology models of the mouse SUCNR1 receptor were constructed according to Trauelsen et al.[4] and loaded into ICM (Molsoft L.L.C., San Diego, CA, USA). The structure was converted into an ICM object, thereby assigning protein atom types, optimising hydrogens and His, Pro, Asn, […] and Cys side-chain conformations. […] For a list of all compounds used in the optimisation protocol, see Table S1. ALiBERO was performed using the prepared receptor structure and ligand training set as input. Binding site residues were manually selected based on proximity to the position of MRS2500 in the superimposed structure of the P2Y1 receptor (PDB 4XNW). 100 elastic network normal mode analysis derived conformers were built in order to recreate backbone and side-chain flexibility (T = 300 K). Next, a flexible-ligand static-receptor small-scale virtual screening was performed on each of the receptor conformers, from which several pockets were selected for the following generation. The ligand and decoy molecules were docked into mSUCNR1, represented as pre-calculated potential grids and then sorted according to their ICM VLS scores. The maximum number of complementary pockets for each generation was set to 5 with a maximum of 10 generations. Receptor models were selected based on their combined screening performance, as determined by the normalised square root area under the curve, NSQ_AUC. After each round of virtual screening, an all-atom Monte Carlo side-chain refinement was performed to account for induced-by-ligand changes. NSQ_AUC values were calculated according to Katritch et al.[16].

[1] = dose-response curves of induction of IP3 turnover in SUCNR1 transfected HEK cells (N = 3)
[2] = relative to the 4-methoxy compound 17
[3] = dose-response curves of induction of IP3 turnover in SUCNR1 transfected HEK cells (N = 3), read-out: hSUCNR1 pEC50 (converted)
[4] = dose-response curves of induction of IP3 turnover in SUCNR1 transfected HEK cells (N = 3), read-out: mSUCNR1 pEC50 (converted)

hSUCNR1 efficacy, % (hSUCNR1)	mSUCNR1 efficacy, % (mSUCNR1)	EC50 (hSUCNR1)	EC50 (mSUCNR1)	Compound	Active (SUCNR1)	other results
94.7 ± 8.7%	76.7 ± 3.1%	5370 nM	741 nM	Cc1ccccc1-c1ccc(C(=O)N[C@@H](CC(=O)O)C(=O)O)o1 [Compound 11, (5-(o-Tolyl)furan-2-carbonyl)-L-aspartic acid]	1 (active (1))	–
91.9 ± 5.3%	81.6 ± 3.0%	9550 nM	851 nM	Cc1cccc(-c2ccc(C(=O)N[C@@H](CC(=O)O)C(=O)O)o2)c1 [Compound 12, (5-(m-Tolyl)furan-2-carbonyl)-L-aspartic acid]	1 (active (1))	–
74.2 ± 11.8%	79.6 ± 3.7%	15500 nM	1950 nM	O=C(O)C[C@H](NC(=O)c1ccc(-c2cccc(CO)c2)o1)C(=O)O [Compound 14, (5-(3-(Hydroxymethyl)phenyl)furan-2-carbonyl)-L-aspartic acid]	1 (active (1))	decrease in potency (mSUCNR1; relative to the 3-methyl (12), orthologue not stated): 3 fold
103.8 ± 7.9%	78.1 ± 3.1%	5130 nM	724 nM	COc1ccccc1-c1ccc(C(=O)N[C@@H](CC(=O)O)C(=O)O)o1 [Compound 16, (5-(2-Methoxyphenyl)furan-2-carbonyl)-L-aspartic acid]	1 (active (1))	–
81.0 ± 7.2%	80.6 ± 4.6%	282 nM	155 nM	O=C(O)C[C@H](NC(=O)c1ccc(-c2ccc(C(F)(F)F)cc2)o1)C(=O)O [Compound 18, (5-(4-(Trifluoromethyl)phenyl)furan-2-carbonyl)-L-aspartic acid]	1 (active (1))	–
61.7 ± 3.6%	69.7 ± 2.8%	102 nM	191 nM	O=C(O)C[C@H](NC(=O)c1ccc(-c2ccc(OC(F)(F)F)cc2)o1)C(=O)O [Compound 20, (5-(4-(Trifluoromethoxy)phenyl)furan-2-carbonyl)-L-aspartic acid]	1 (active (1))	increase in potency on hSUCNR1 (hSUCNR1; [2]): 2 fold; decrease in potency on mSUCNR1 (mSUCNR1; [2]): > 4 fold

Further lines, the molecule ahead of its results:

Compound	hSUCNR1 efficacy, % (hSUCNR1)	mSUCNR1 efficacy, % (mSUCNR1)	EC50 (hSUCNR1)	EC50 (mSUCNR1)	Active (SUCNR1)	other results
O=C(O)C[C@H](NC(=O)c1ccc(Br)o1)C(=O)O [Compound 4, (5-Bromofuran-2-carbonyl)-L-aspartic acid]	78.1 ± 7.5%	95.8 ± 2.9%	–	–	0 (inactive (0))	hSUCNR1 pEC50 (hSUCNR1; [1]): 4.53 ± 0.13; mSUCNR1 pEC50 (mSUCNR1; [1]): 4.93 ± 0.05
O=C(O)C[C@H](NC(=O)c1ccccc1Cl)C(=O)O [Compound 5, (2-Chlorobenzoyl)-L-aspartic acid]	–	–	–	–	0 (inactive (0))	hSUCNR1 % @10^−4M (hSUCNR1): 22% @10^−4M; mSUCNR1 % @10^−4M (mSUCNR1): 13% @10^−4M
O=C(O)C[C@H](NC(=O)c1cccc(I)c1)C(=O)O [Compound 6, (3-Iodobenzoyl)-L-aspartic acid]	–	–	–	–	0 (inactive (0))	hSUCNR1 % @10^−4M (hSUCNR1): 50% @10^−4M; mSUCNR1 % @10^−4M (mSUCNR1): 64% @10^−4M
O=C(O)C[C@H](NC(=O)c1ccc(Br)cc1)C(=O)O [Compound 7, (4-Bromobenzoyl)-L-aspartic acid]	–	–	–	–	0 (inactive (0))	hSUCNR1 % @10^−4M (hSUCNR1): 8% @10^−4M; mSUCNR1 % @10^−4M (mSUCNR1): 15% @10^−4M
O=C(O)C[C@H](NC(=O)Cc1ccc(Br)cc1)C(=O)O [Compound 8, (2-(4-Bromophenyl)acetyl)-L-aspartic acid]	–	–	–	–	0 (inactive (0))	hSUCNR1 % @10^−4M (hSUCNR1): 5% @10^−4M; mSUCNR1 % @10^−4M (mSUCNR1): 11% @10^−4M
O=C(O)C[C@H](NC(=O)Cc1ccc(-c2ccc(F)cc2)cc1)C(=O)O [Compound 9, (2-(4′-Fluoro-[1,1′-biphenyl]-4-yl)acetyl)-L-aspartic acid]	–	–	–	–	0 (inactive (0))	hSUCNR1 % @10^−4M (hSUCNR1): 25% @10^−4M; mSUCNR1 % @10^−4M (mSUCNR1): 15% @10^−4M
O=C(O)C[C@H](NC(=O)c1ccc(-c2ccccc2)o1)C(=O)O [Compound 10, (5-Phenylfuran-2-carbonyl)-L-aspartic acid]	81.6 ± 8.4%	81.3 ± 3.6%	5130 nM	692 nM	1 (active (1))	–
Cc1ccc(-c2ccc(C(=O)N[C@@H](CC(=O)O)C(=O)O)o2)cc1 [Compound 13, (5-(p-Tolyl)furan-2-carbonyl)-L-aspartic acid]	69.1 ± 3.9%	73.2 ± 2.7%	–	–	1 (active (1))	hSUCNR1 pEC50 (hSUCNR1; [1]): 6.33 ± 0.14; mSUCNR1 pEC50 (mSUCNR1; [1]): 6.83 ± 0.11
O=C(O)C[C@H](NC(=O)c1ccc(-c2ccc(O)cc2)o1)C(=O)O [Compound 15, (5-(4-Hydroxyphenyl)furan-2-carbonyl)-L-aspartic acid]	71.1 ± 4.2%	74.8 ± 2.0%	741 nM	151 nM	1 (active (1))	–
COc1ccc(-c2ccc(C(=O)N[C@@H](CC(=O)O)C(=O)O)o2)cc1 [Compound 17, (5-(4-Methoxyphenyl)furan-2-carbonyl)-L-aspartic acid]	85.3 ± 4.5%	84.2 ± 1.8%	389 nM	40.7 nM	1 (active (1))	–
N#Cc1ccc(-c2ccc(C(=O)N[C@@H](CC(=O)O)C(=O)O)o2)cc1 [Compound 19, (5-(4-Cyanophenyl)furan-2-carbonyl)-L-aspartic acid]	72.1 ± 3.2%	76.0 ± 1.5%	407 nM	162 nM	1 (active (1))	–
O=C(O)C[C@H](NC(=O)c1cccc(-c2ccc(OCC(F)(F)F)cc2)n1)C(=O)O [Compound 32, (6-(4-(2,2,2-Trifluoroethoxy)phenyl)picolinoyl)-L-aspartic acid]	88.7 ± 6.1%	68.1 ± 2.5%	–	–	–	EC50 (hSUCNR1; [3]): 58.9 nM; EC50 (mSUCNR1; [4]): 100 nM
CCCOc1ccc(-c2cccc(C(=O)N[C@@H](CC(=O)O)C(=O)O)n2)cc1 [Compound 33, (6-(4-Propoxyphenyl)picolinoyl)-L-aspartic acid]	66.4 ± 7.2%	61.5 ± 3.8%	–	–	–	EC50 (hSUCNR1; [3]): 58.9 nM; EC50 (mSUCNR1; [4]): 51.3 nM
